Test results from BindingDB's records for doi:10.1016/s0028-3908(00)00022-8 (University of Frankfurt, 2000).

Assays:
ATP receptor [1] = target: T1, ATP receptor (Xenopus sp., UniProt F6VH38)
T1 sequence (F6VH38 whole entry): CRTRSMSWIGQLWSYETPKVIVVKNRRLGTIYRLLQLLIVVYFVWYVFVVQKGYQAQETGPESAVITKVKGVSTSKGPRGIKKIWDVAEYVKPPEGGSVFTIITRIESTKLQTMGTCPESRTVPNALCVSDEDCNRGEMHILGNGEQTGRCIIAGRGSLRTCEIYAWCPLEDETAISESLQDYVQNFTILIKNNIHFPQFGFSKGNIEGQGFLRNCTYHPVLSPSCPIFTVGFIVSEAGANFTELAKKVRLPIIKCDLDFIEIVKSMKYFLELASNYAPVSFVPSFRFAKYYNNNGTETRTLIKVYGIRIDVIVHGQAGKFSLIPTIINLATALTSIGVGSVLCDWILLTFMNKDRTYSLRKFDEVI

P2X purinoceptor = target: T2, P2X purinoceptor (Xenopus sp., UniProt Q9DDP1)
T2 sequence (Q9DDP1 whole entry): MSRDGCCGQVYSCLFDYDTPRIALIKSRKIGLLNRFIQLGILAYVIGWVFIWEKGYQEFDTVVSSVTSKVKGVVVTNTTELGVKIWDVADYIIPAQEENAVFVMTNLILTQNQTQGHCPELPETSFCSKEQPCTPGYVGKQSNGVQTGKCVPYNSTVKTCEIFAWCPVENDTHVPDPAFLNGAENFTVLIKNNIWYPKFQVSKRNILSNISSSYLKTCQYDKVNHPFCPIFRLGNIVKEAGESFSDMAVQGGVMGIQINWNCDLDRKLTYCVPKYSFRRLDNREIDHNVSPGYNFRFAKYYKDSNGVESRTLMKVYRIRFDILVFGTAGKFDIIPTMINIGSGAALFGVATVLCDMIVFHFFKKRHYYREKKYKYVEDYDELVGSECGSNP

ATP receptor [2] = target: T3, ATP receptor (Xenopus sp., UniProt Q64F95)
T3 sequence (Q64F95 whole entry): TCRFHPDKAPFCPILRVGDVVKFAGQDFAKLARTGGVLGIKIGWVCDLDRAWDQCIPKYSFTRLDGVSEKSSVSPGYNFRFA

Structure (SMILES): O=C(Nc1ccc(C(=O)Nc2ccc(C(=O)Nc3ccc(S(=O)(=O)O)c4cc(S(=O)(=O)O)cc(S(=O)(=O)O)c34)cc2)cc1)Nc1ccc(C(=O)Nc2ccc(C(=O)Nc3ccc(S(=O)(=O)O)c4cc(S(=O)(=O)O)cc(S(=O)(=O)O)c34)cc2)cc1 [CAS_5311315]
- Ki (ATP receptor [1]): 770 nM
- Ki (P2X purinoceptor): > 10000 nM
- Ki (ATP receptor [2]): 1620 nM
